# Measured values reported in a melting point compilation (Tetko et al.; mined from patent text by program, amines drawn as free bases though some values may be those of a salt).
row,Structure (SMILES),melting point [°C]
1,c1ccc(Nc2ncnc3ncccc23)cc1,258
2,CCNC(=O)c1sc(Oc2ccc3c(c2)OCO3)c2c1CCc1cnn(C)c1-2,138 to 139
3,CCOC(=O)c1cn(C)c2nc3cc(N4CCNC(c5ccc(N)cc5)C4)c(F)cc3cc2c1=O (racemic),180 to 182
4,Cc1nc(CO)n(COCc2ccccc2)c1Sc1ccccc1,87 to 88
5,O=C(O)c1ccc(OCCNC(=O)C2Cc3ccccc3N2S(=O)(=O)c2ccc(-c3cccc(C(F)(F)F)c3)cc2)cc1F (stereo unspecified),97 to 105
6,Cc1cc(C)n2nc(S(=O)(=O)Nc3c(Cl)ccc(C)c3Cl)nc2n1,286 to 288
7,CCOc1ccc(-n2nc(Sc3ccc(Cl)cc3)c(C)c(C#N)c2=O)cc1,138 to 145
8,Oc1ccnc(OC(F)F)c1,88.6 to 89.8
9,CC(C)(C)CC(=O)NN1C(=O)C(NC(=O)Nc2cccc(N)c2)CC(c2ccccc2)CC1c1ccccc1 (stereo unspecified),195 to 205
10,COc1ccc(C)cc1NC(=O)Nc1ccc(N2CCN(C(=O)Nc3cc(OCC(O)CO)ccc3Cl)CC2)cc1 (stereo unspecified),114 to 118
11,Fc1ccc(-n2cc(C3CCN(CCN4CCNC4=S)CC3)c3ccc(Cl)cc32)cc1,184 to 186
12,O=Cc1ccc(-c2ccc(OCc3ccccc3)cc2)cc1,122 to 123
13,Cc1noc(C)c1CON1C(=O)c2ccccc2C1=O,144 to 146
14,CC(C)CCN(CC(O)C(Cc1ccccc1)NC(=O)C(CC(N)=O)NC(=O)c1ccc2ccccc2n1)C(=O)NC(C)(C)C (stereo unspecified),93.5 to 95.6
15,COc1cc2nc(N3CCN(c4nc5ncccc5o4)CC3)nc(N)c2cc1OC,> 250
16,CCN(CC)C(=O)C=Cc1ccccc1,65
17,COc1nc2sc(S(=O)(=O)Cc3ccccc3)nn2c(=O)c1[N+](=O)[O-],216 to 218
18,CC(=O)SCCC(=O)N(C)C,118 to 121
19,O=C(CNc1ccccc1)c1ccccc1,97 to 99
20,CCCCCCCCCCCCCCCC(=O)OCc1ccco1,31 to 33
21,Cc1cccc(Nc2ncccc2[N+](=O)[O-])n1,153 to 154
22,CCCCCS(=O)(=O)NC(=O)/C=C/c1ccc(OCCOC)cc1Oc1ncc(Cl)cc1Cl,119 to 120
23,CCOP(=O)(OCC)c1nc(N2CCCCC2)nc(N2CCCCC2)n1,103 to 105
24,Cc1nc(-c2ccc(F)cc2)sc1C(=O)NCc1ccc(OC(C)(C)C(=O)O)cc1,159

row,Structure (SMILES),melting point [°C]
1,CC(C)(C1OCCO1)C(O)(Cn1cncn1)c1ccc(F)cc1 (stereo unspecified),90
2,CC(C)(C(=O)O)c1nc2ccc(NCCCN3CCN(C(c4ccccc4)c4ccccc4)CC3)nn2c1Cl,184 to 186
3,CCCCCCCCCCOc1ccc(-c2ccc(C#CCCC(C)OC(C)=O)cc2)cc1 (stereo unspecified),80 to 82
4,COc1ccc(C2CC(=O)N(C(=S)NCc3ccc(F)cc3)N2C)cc1OC1CCCC1 (stereo unspecified),48 to 51
5,COC(=O)COc1ccc(C(=O)C(C)C)cc1,45 to 46
6,COc1cccc(C=O)c1OCc1cccc2ccccc12,98 to 99
7,CC(C)(C)c1ccc(C(=O)Nc2cn3cc(-c4cccnc4)ccc3n2)cn1,272 to 274
8,O=C(O)C(F)c1cc(F)cc(F)c1 (stereo unspecified),90 to 110
9,CCNC(=O)c1cccc(NCC(=O)NCCc2ccc(OC)c(OC)c2)c1,99 to 101
10,O=C(O)CNC(=O)CCCC1CCCCC1,85 to 88
11,CCCCCCCCOc1ccc(C(C)(C)CC(C)(C)C)cc1S(=O)(=O)NCC(C)c1nn2nc(C)c(Cl)c2[nH]1 (stereo unspecified),135 to 137
12,O=C(O)CCc1cccc(CNC(=O)C2Cc3ccccc3N2S(=O)(=O)c2ccc(-c3cccc(C(F)(F)F)c3)cc2)c1 (stereo unspecified),135
13,COC(=O)Cc1ccc2c(=O)c3ccccc3ccc2c1,67 to 69
14,Cc1nc(-c2c(F)cccc2Cl)nn1-c1ccc(CO)cc1,120 to 122
15,CCc1c(C(C)C)cc(C(C)C)c(CO)c1-c1ccc(F)cc1,106 to 108
16,CCOC(=O)C(C(=O)OCC)N(Cc1ccc(OC)cc1OC)C(=O)CCl,83 to 84
17,c1ccc(-c2cc(-c3ccc4c(c3)OCO4)cc(OCCCCCc3nnn[nH]3)n2)cc1,150
18,Cc1ccc(NC(=O)c2ccc(C(=O)Nc3ccccc3N)cc2)cc1Nc1nc(-c2cccnc2)cs1,147
19,CCOC(=O)Cc1c(C(=O)O)c(C)c(C(=O)c2ccc(C)cc2)n1C,200 to 202
20,NC(=O)CC(=O)c1ccc(-c2ccc(Cl)cc2)o1,180 to 181
21,COc1cc2c(Nc3ccc(Cl)cc3F)ncnc2cc1OCCN1CCS(=O)(=O)CC1,246 to 249
22,CS(=O)(=O)c1nnc(-c2ccccc2Nc2cccc(C(F)(F)F)c2)o1,144 to 148
23,CSc1c2c(nn1C)N(c1c(C)cc(C)cc1C)CCC2,90.3 to 91.7
24,O=C(NCCOc1ccc(CC(Oc2ccc(-c3ccccn3)cc2)C(=O)O)cc1)c1ccc(-c2ccccn2)cc1 (stereo unspecified),98 to 101

row,Structure (SMILES),melting point [°C]
1,N#Cc1c(N2CCCC2)cc(-c2ccccc2)c2c1-c1ccccc1C2,158 to 160
2,CC(C)n1nc(-c2cc(C#N)c(N)nc2-c2ccccc2)ccc1=O,197 to 198
3,CCCC1C(=O)N(S(=O)(=O)c2ccc3ccccc3c2)C2CCN(S(=O)(=O)CCCN3CCOCC3)C12 (stereo unspecified),189 to 192
4,Cn1cc(C(=O)Nc2ccccc2-c2ccc(Cl)cc2)c(C(F)(F)F)n1,144 to 146
5,Cc1cc(C)c(Nc2nc(C)ccc2S(=O)(=O)c2ccc(OCc3ccc(F)cc3)cc2)c(C)c1,178 to 180
6,O=C(Nc1ccccc1C(F)(F)F)c1cc(-c2ccc(F)cc2F)ccc1O,180 to 181
7,Cc1ccccc1C1(C#N)C2CC3CC(C2)CC1C3 (stereo unspecified),80 to 81
8,COc1ccc(NC(=O)CN2CCC(Cc3ccccc3)CC2)cc1,81 to 83
9,CN(Cc1cc2c3c(c1)c(=O)c(C(=O)NCc1ccc(Cl)cc1)cn3CC(=O)N2C)C[C@@H](O)c1cc2ccccc2o1,86 to 87
10,O=[N+]([O-])c1ccc(-c2ccc3nncn3n2)cc1C(F)(F)F,129 to 135
11,O=C(Cc1ccccn1)OC(=O)Cc1ccccn1,105 to 106
12,CCOC(=O)Cc1nnc(-c2ccc(OC)cc2)n1-c1ccccc1,130 to 131
13,COC(=O)CCC(=NOCc1ccc(OCc2nc(-c3ccccc3)oc2C)c(OC)c1)c1ccccc1,112 to 114
14,O=C1OC(=O)C(F)=C1F,170 to 173
15,CC(c1cc(C(C)(C)C#N)cc(C(C)(C)C#N)c1)n1ccnc1 (stereo unspecified),77 to 80
16,COc1cc(C=CC(=O)CSc2ccccc2)ccc1O,78 to 80
17,Cc1nn(C(=O)NC(C)(C)C)c(=O)n1N,132
18,CC(C)Nc1ncnc2cscc12,230
19,O=C(CN1CCN(C(c2ccccc2)c2ccccc2)CC1)c1ccc(OCc2ccccc2)cc1,151
20,Nc1cc(N2CCN(C34CC5CC(CC(C5)C3)C4)CC2)nc(N)n1,265 to 268
21,CSc1cccc(COCCCO)c1NC(=O)CC1c2ccccc2Oc2ccccc21,207 to 208
22,O=C(O)c1ccc(N(Cc2cncs2)c2ccc(OC(F)F)c(OC(F)F)c2)cc1,144 to 146
23,O=C(O)c1ccc(Nc2cc3c4c(c2)CCCC4CCC3)cc1,204 to 205
24,COC1CC(CNC(=O)Nc2ccc([N+](=O)[O-])cc2)C(OC)O1 (stereo unspecified),172 to 174

row,Structure (SMILES),melting point [°C]
1,CCCCOc1ccc(S(=O)(=O)C2(C(=O)NO)CCN(Cc3cccc(OC)c3)CC2)cc1,137
2,COc1ccc(Cn2ncnc2CN2C(=O)c3ccccc3C2=O)cc1,167 to 172
3,CCN1CC=C(c2c[nH]c3ccc([N+](=O)[O-])cc23)CC1,188 to 190
4,CC(O)C1CCC2C3CC=C4CC(O)CC(O)C4(C)C3CCC12C (stereo unspecified),235 to 237
5,COC1CCN(CC=CC(=O)Nc2cc3c(Nc4ccc(F)c(Cl)c4)ncnc3cc2OCC2CC2)CC1,129 to 130
6,CN1c2cccc(CC(=O)O)c2Sc2c(C(N)C(=O)OCC3c4ccccc4-c4ccccc43)cccc21 (stereo unspecified),217 to 219
7,Cn1ncc(C(=O)N2CCC2)c1C(=O)Nc1ccn2nc(N3CCOCC3)nc2c1,232 to 234
8,CNN(NC)C(=O)Nc1cccc2c1C(=O)c1c-2n[nH]c1C(C)C,231 to 233
9,O=CN1CCN(c2nc3cccc4c3n2CCC4)CC1,138 to 139
10,Nc1cc(Br)cnc1CCCCNC1=NS(=O)N=C1NCc1ccncc1 (stereo unspecified),63 to 66
11,COc1c2c(c(OC)c(OC)c1OC)CCC(CCOc1cccnc1)CC2,111 to 113
12,COc1cccc(-c2cccc3c2OC(COS(=O)(=O)c2ccc(C)cc2)C3)c1 (stereo unspecified),141 to 142
13,CCCC(=O)c1cnc2c(OCC)nccc2c1OS(C)(=O)=O,115 to 116
14,Cc1sc(N2CCOCC2)nc1CCOc1ccc(C[C@H](Nc2ccccc2C(=O)c2ccccc2)C(=O)O)cc1,148 to 151
15,S=C(OCc1ccc(Cl)c(Cl)c1)SC(Cn1ccnc1)c1ccc(Cl)cc1Cl (stereo unspecified),140
16,CCn1nc(NC(=O)NS(=O)(=O)c2ccccc2C(=O)OC)nc1SC,188 to 191
17,CN(C)CCC1CCCCN1C(=O)N1c2ccccc2C(=O)Nc2cccnc21 (stereo unspecified),188 to 190
18,CC(=N)NCCCCCCCCCCCCNC(C)=N,92 to 97
19,CN(C)c1ccc(S(=O)(=O)n2c(CCCC(=O)O)cc3nc(Cl)ccc32)cc1,76
20,CC(=O)N[C@@H](CSC(=O)c1ccccc1)C(=O)NCCSC(=O)C(C)C,137 to 138
21,CCOC(=O)COc1ccc(N2CCN(S(=O)(=O)c3ncn(C)c3Cl)CC2)cc1,148 to 149
22,CCCCOC(=O)NC1CCN(c2c(F)cc3c(=O)c(C(=O)O)cn(C4CC4)c3c2F)C1 (stereo unspecified),228 to 230
23,COC(=O)c1snc(-c2cccc(C)c2)c1C(=O)OC,53 to 54.5
24,CCN(CC)CCOc1ccc(Nc2nccc(-c3cccnc3)n2)cc1,87 to 89
